Test results from US6399828B1, “Preparation of amphetamines from phenylpropanolamines” (Boehringer Ingelheim Chemicals, Inc., priority 2001, dated 2002).

How the values were obtained:
[1] = Solubility of O-acetylnorephedrine hydrochloride in water (Experiment X)
[2] = Stability of O-acetylnorephedrine hydrochloride stirred with water (rearrangement to N-acetylnorephedrine), HPLC analyses; type: physicochemical
Description: Ammonium formate appears to catalyze the rearrangement of O-acetylnorephedrine hydrochloride to N-acetylnorephedrine. Three samples of O-acetylnorephedrine hydrochloride (Experiment Z recrystallized) were stirred with water for six hours respectively at room temperature, at 60° C., and at 60° C. with ammonium formate added. Samples were taken at intervals for HPLC analyses. […] At 60° C., the percentage of O-acetylnorephedrine hydrochloride decreased from 99.18 to 97.79 with the percentage of N-acetylnorephedrine increasing from 0.21% to 1.1% over a 6 hour period. […] The catalytic hydrogenation route therefore appears to be preferable to catalytic transfer hydrogenation in view of the induction period, gas evolution, and rearrangement potential.

SMILES: CC(=O)OC(c1ccccc1)C(C)N.Cl (stereo not shown) [O-acetylnorephedrine hydrochloride, 2-Amino-1-acetoxy1-phenylpropane Hydrochloride]
- solubility in water [1]: 5.5 mL/g
- percentage of O-acetylnorephedrine hydrochloride ([2]; water with ammonium formate, 60° C., by 6 hours): 77.20%
- percentage of O-acetylnorephedrine hydrochloride ([2]; water with ammonium formate, 60° C., within 30 minutes): 91.23%
- percentage of O-acetylnorephedrine hydrochloride ([2]; water, 60° C., after 6 hours): 97.79%
- percentage of O-acetylnorephedrine hydrochloride ([2]; water, 60° C., start): 99.18%
- percentage of O-acetylnorephedrine hydrochloride ([2]; water, room temperature, after 6 hours): 99.12%
- percentage of O-acetylnorephedrine hydrochloride ([2]; water, room temperature, start): 99.30%
